Experimental findings from patent publication US10975056B2 (GlaxoSmithKline Intellectual Property Development Limited, priority 2016, dated 2021) are described below.

“And” between values parts separate entries of the source, which are not always exact repeats. Equal entries are not always repeated. Where two headings read alike, the source gives them in different places.

The target of one test is DNMT1 (Homo sapiens, UniProt P26358). In words: DNMT1 biochemical activity, breaklight assay and/or SPA assay.
Test [1] relates to erythroid progenitor cells (EPCs). In words: Fetal hemoglobin (HbF) ELISA in day 7 erythroid progenitor cells. The settings on record: Homo sapiens, Erythroid progenitor cell, HbF ELISA, day 7 EPCs, 5 days; read-out: EPC ELISA (pEC50 category) (converted). The test is classed as cell-based, human. In short, it runs like this: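 HbF induction was read by anti-HbF sandwich ELISA (HRP/TMB, OD450) on lysates and normalized to vehicle-treated cells. Cells were day 7 erythroid progenitors derived from human bone marrow CD34+ cells, seeded at 1,000/well with 3 U/mL rhEPO. Compound was given for 5 days at 37 °C at final concentrations […].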
Background: In an ELISA, binding on a coated surface is turned into a signal by an enzyme label.

[2] abbreviates: binned activity in either the breaklight or the SPA assay, read-out: DNMT1 BioChemical (pIC50 category) (converted).
[3] abbreviates: binned activity in either the breaklight or the SPA assay.
Setting [4] is: breaklight assay and/or SPA assay, repeated experimental runs, read-out: average pIC50 against DNMT1 (converted).

Sequence of DNMT1 (P26358 whole entry, looked up): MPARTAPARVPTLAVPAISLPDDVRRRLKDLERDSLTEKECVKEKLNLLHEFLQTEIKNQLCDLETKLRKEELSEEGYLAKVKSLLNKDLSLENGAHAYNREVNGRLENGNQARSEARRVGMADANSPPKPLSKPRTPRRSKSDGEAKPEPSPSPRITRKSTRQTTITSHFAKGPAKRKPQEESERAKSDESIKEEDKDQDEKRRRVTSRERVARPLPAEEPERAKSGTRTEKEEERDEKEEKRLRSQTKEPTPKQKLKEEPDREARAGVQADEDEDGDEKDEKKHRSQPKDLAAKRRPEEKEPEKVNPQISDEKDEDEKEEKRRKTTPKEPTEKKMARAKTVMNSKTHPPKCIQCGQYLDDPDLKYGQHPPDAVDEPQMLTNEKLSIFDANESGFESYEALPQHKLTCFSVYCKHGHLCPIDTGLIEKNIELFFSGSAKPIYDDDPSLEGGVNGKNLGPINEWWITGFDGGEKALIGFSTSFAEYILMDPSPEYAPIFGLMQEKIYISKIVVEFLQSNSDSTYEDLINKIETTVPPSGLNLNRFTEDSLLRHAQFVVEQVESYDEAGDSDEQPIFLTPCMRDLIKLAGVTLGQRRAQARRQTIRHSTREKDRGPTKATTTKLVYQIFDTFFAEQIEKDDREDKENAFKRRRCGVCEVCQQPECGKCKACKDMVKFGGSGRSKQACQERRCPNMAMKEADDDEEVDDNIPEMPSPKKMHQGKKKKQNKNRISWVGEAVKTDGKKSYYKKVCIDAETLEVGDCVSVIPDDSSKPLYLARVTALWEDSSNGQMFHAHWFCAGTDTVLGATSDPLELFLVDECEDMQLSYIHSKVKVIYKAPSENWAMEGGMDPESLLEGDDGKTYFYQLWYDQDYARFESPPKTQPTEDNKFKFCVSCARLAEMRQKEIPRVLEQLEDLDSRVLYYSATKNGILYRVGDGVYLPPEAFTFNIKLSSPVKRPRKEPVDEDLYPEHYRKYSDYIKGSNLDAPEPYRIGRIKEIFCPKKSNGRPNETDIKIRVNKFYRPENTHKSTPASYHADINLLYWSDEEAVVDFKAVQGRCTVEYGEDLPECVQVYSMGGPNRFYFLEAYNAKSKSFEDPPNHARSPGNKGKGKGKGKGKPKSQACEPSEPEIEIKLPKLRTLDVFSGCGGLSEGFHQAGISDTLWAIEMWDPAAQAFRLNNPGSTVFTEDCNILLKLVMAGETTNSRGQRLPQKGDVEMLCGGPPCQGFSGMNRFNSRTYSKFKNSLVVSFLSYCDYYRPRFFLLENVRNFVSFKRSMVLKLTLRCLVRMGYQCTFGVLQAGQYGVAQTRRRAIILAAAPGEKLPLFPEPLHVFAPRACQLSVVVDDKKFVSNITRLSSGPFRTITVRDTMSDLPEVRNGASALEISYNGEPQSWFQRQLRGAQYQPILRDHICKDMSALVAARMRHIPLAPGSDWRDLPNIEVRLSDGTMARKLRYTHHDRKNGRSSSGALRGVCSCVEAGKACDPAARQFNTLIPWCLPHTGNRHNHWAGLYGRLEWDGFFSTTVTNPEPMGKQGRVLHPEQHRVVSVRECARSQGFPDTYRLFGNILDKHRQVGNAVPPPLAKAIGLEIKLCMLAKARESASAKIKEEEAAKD

Turning to `CCc1c(C#N)c(SC(C(N)=O)c2ccccc2)nc(N2CCNCC(F)C2)c1C#N` (stereo not shown) [Example 381, 2-((3,5-Dicyano-4-ethyl-6-(16-fluoro-1,4-diazepan-1-yl)pyridin-2-yl)thio)-2-phenylacetamide], at DNMT1 (setting [2]), the IC50 was 316 to 1000 nM. Further, the EC50 in test [1] was 1000 to 31600 nM.
The matching figures for `CCc1c(C#N)c(SCc2ccc(NS(C)(=O)=O)nc2)nc(N2CCCN(C)CC2)c1C#N` [Example 335, N-(5-(((3,5-dicyano-4-ethyl-6-(4-methyl-1,4-diazepan-1-yl)pyridin-2-yl)thio)methyl)pyridin-2-yl)methanesulfonamide]: 316 to 1000 nM and above 31600 nM.
Consider `CCc1c(C#N)c(SC(C(N)=O)c2ccccc2)nc(N2CCO[C@@H](CNC(=O)CN)C2)c1C#N` (stereo partly drawn) [Example 598, 2-amino-N-(((2S)-4-(6-((2-amino-2-oxo-1-phenylethyl)thio)-3,5-dicyano-4-ethylpyridin-2-yl)morpholin-2-yl)methyl)acetamide], for which, on DNMT1 (setting [3]), the “DNMT1 BioChemical (pIC50 category)” value was “D (Category D: ≥6.5)”. Also, the EC50 in test [1] was 1000 to 31600 nM.
Regarding `CCc1c(C#N)c(SCc2ccc(NS(C)(=O)=O)cc2)nc(N(C)C)c1C#N` [Example 287, N-(4-(((3,5-Dicyano-6-(dimethylamino)-4-ethylpyridin-2-yl)thio)methyl)phenyl) methanesulfonamide], the IC50 at DNMT1 (setting [2]) was 316 to 1000 nM. Moreover, the EC50 in test [1] is 1000 to 31600 nM.
With `CCc1c(C#N)c(SCc2ccc(CC(=O)NCCO)cc2)nc(N2CCCN(C)CC2)c1C#N` [Example 343, 2-(4-(((3,5-Dicyano-4-ethyl-6-(4-methyl-1,4-diazepan-1-yl)pyridin-2-yl)thio)methyl)phenyl)-N-(2-hydroxyethyl)acetamide], the “DNMT1 BioChemical (pIC50 category)” value at DNMT1 (setting [3]) is given as “D (Category D: ≥6.5)”. The EC50 in test [1] is 316 to 1000 nM.
For the compound `CCc1c(C#N)c(SCc2ccc(CNC(=O)CCN)cc2)nc(N(C)C)c1C#N` [Example 279, 3-Amino-N-(4-(((3,5-dicyano-6-(dimethylamino)-4-ethylpyridin-2-yl)thio)methyl)benzyl)propanamide], the IC50 on DNMT1 (setting [2]) was 316 to 1000 nM; at DNMT1 (setting [4]) it was ≥ 1000 nM and 1000 nM. In test [1], the EC50 was above 31600 nM.
On to `CCc1c(C#N)c(SCc2ccc(CNC(=O)Nc3ccccc3)cc2)nc(N2CCCN(C)CC2)c1C#N` [Example 100, 1-(4-(((3,5-Dicyano-4-ethyl-6-(4-methyl-1,4-diazepan-1-yl)pyridin-2-yl)thio)methyl)benzyl)-3-phenylurea], for which the IC50 on DNMT1 (setting [2]) is 316 to 1000 nM. Also, in test [1], the EC50 is above 31600 nM.
For `CN(CC(N)=O)c1nc(SC(C(N)=O)c2ccccc2)c(C#N)c(C2CC2)c1C#N` (stereo not shown) [Example 396, 2-((6-((2-Amino-2-oxoethyl)(methyl)amino)-3,5-dicyano-4-cyclopropylpyridin-2-yl)thio)-2-phenylacetamide] the same measures were 316 to 1000 nM and 1000 to 31600 nM.
Take `CCc1c(C#N)c(SCc2ccc(N3CCCCS3(=O)=O)cc2)nc(N2CCC(N)CC2)c1C#N` [Example 601, 2-(4-aminopiperidin-1-yl)-6-((4-(1,1-dioxido-1,2-thiazinan-2-yl)benzyl)thio)-4-ethylpyridine-3,5-dicarbonitrile]: the “DNMT1 BioChemical (pIC50 category)” value on DNMT1 (setting [3]) is on record as “D (Category D: ≥6.5)”. Besides, the EC50 in test [1] was above 31600 nM.
As for `CCc1c(C#N)c(SC(C(N)=O)C2CCNCC2)nc(N(C)C)c1C#N` (stereo not shown) [Example 157, 2-((3,5-dicyano-6-(dimethylamino)-4-ethylpyridin-2-yl)thio)-2-(piperidin-4-yl)acetamide], on DNMT1 (setting [2]), the IC50 was 1000 to 31600 nM. Further, in test [1], the EC50 was 1000 to 31600 nM.
For the compound `CCc1c(C#N)c(SC(C(N)=O)c2ccccc2)nc(N2CCC[C@H](NCC(C)(C)C)C2)c1C#N` (stereo partly drawn) [Example 651, 2-((3,5-dicyano-4-ethyl-6-((S)-3-(neopentylamino)piperidin-1-yl)pyridin-2-yl)thio)-2-phenylacetamide], the “DNMT1 BioChemical (pIC50 category)” value at DNMT1 (setting [3]) is on record as “D (Category D: ≥6.5)”. For the same compound, the EC50 in test [1] is below 316 nM.
For the compound `COc1c(C#N)c(SC(C(N)=O)c2ccccc2)nc(N(C)C)c1C#N` (stereo not shown) [Example 191, 2-((3,5-Dicyano-6-(dimethylamino)-4-methoxypyridin-2-yl)thio)-2-phenylacetamide], the “DNMT1 BioChemical (pIC50 category)” value on DNMT1 (setting [3]) was “D (Category D: ≥6.5)”. In addition, the EC50 in test [1] was 316 to 1000 nM.
As for `CCc1c(C#N)c(SC(C(N)=O)c2ccc(F)cc2)nc(N2CCC[C@H](CN)C2)c1C#N` (stereo partly drawn) [Example 593, 2-((6-((R)-3-(aminomethyl)piperidin-1-yl)-3,5-dicyano-4-ethylpyridin-2-yl)thio)-2-(4-fluorophenyl)acetamide], on DNMT1 (setting [2]), the IC50 was below 316 nM. Also, the EC50 in test [1] was below 316 nM.
Take `CCc1c(C#N)c(SC(C(N)=O)c2ccccc2)nc(N2CCCN3CCCC3C2)c1C#N` (stereo not shown) [Example 117, 2-((3,5-Dicyano-4-ethyl-6-(hexahydro-1H-pyrrolo[1,2-a][1,4]diazepin-2(3H)-yl)pyridin-2-yl)thio)-2-phenylacetamide]: the IC50 at DNMT1 (setting [2]) and on DNMT1 (setting [4]) was 316 to 1000 nM throughout. For the same compound, the EC50 in test [1] is below 316 nM.
Regarding `CCc1c(C#N)c(SC(C(N)=O)c2cccc(N3CCCC3)c2)nc(N2CCCN(C)CC2)c1C#N` (stereo not shown) [Example 247, 2-((3,5-Dicyano-4-ethyl-6-(4-methyl-1,4-diazepan-1-yl)pyridin-2-yl)thio)-2-(3-(pyrrolidin-1-yl)phenyl)acetamide], the IC50 at DNMT1 (setting [2]) was 1000 to 31600 nM; at DNMT1 (setting [4]), ≥ 1000 nM and 1580 nM. For the same compound, the EC50 in test [1] was 316 to 1000 nM.
In the case of `CCc1c(C#N)c(SC(C(N)=O)c2ccccc2)nc(N2CCC(n3ccnc3)CC2)c1C#N` (stereo not shown) [Example 172, 2-((6-(4-(1H-Imidazol-1-yl)piperidin-1-yl)-3,5-dicyano-4-ethylpyridin-2-yl)thio)-2-phenylacetamide], at DNMT1 (setting [2]), the IC50 is 1000 to 31600 nM. Moreover, in test [1], the EC50 is below 316 nM.
`CCc1c(C#N)c(SCc2ccc(NC(C)=O)cc2)nc(N2CCCN(C)CC2)c1C#N` [Example 298, N-(4-(((3,5-Dicyano-4-ethyl-6-(4-methyl-1,4-diazepan-1-yl)pyridin-2-yl)thio)methyl)phenyl)acetamide]: the “DNMT1 BioChemical (pIC50 category)” value on DNMT1 (setting [3]) is given as “D (Category D: ≥6.5)”. In addition, the EC50 in test [1] is below 316 nM.
The matching figures for `CCc1c(C#N)c(S[C@@H](C(N)=O)c2ccccc2)nc(N2CC[C@@](O)(CO)C2)c1C#N` [Example 654, (R)-2-((3,5-dicyano-4-ethyl-6-((S)-3-hydroxy-3-(hydroxymethyl)pyrrolidin-1-yl)pyridin-2-yl)thio)-2-phenylacetamide]: “D (Category D: ≥6.5)” and 1000 to 31600 nM.
The matching figures for `CCc1c(C#N)c(SCc2ccc(N(C)S(C)(=O)=O)cc2)nc(N(C)CCN2CCCCC2)c1C#N` [Example 577, N-(4-(((3,5-dicyano-4-ethyl-6-(methyl(2-(piperidin-1-yl)ethyl)amino)pyridin-2-yl)thio)methyl)phenyl)-N-methylmethanesulfonamide]: “D (Category D: ≥6.5)” and below 316 nM.
In the case of `CCc1c(C#N)c(SC(C(N)=O)c2ccccc2)nc(N2CCC(OCCOC(=O)[C@@H](N)C(C)C)CC2)c1C#N` (stereo partly drawn) [Example 153, (2S)-2-((1-(6-((2-Amino-2-oxo-1-phenylethyl)thio)-3,5-dicyano-4-ethylpyridin-2-yl)piperidin-4-yl)oxy)ethyl 2-amino-3-methylbutanoate], the “DNMT1 BioChemical (pIC50 category)” value on DNMT1 (setting [3]) is given as “D (Category D: ≥6.5)”. For the same compound, in test [1], the EC50 was 316 to 1000 nM.
For `CCc1c(C#N)c(SCc2ccc(N(C)S(C)(=O)=O)cc2)nc(N(C)CCNCC(C)(C)C)c1C#N` [Example 458, N-(4-(((3,5-dicyano-4-ethyl-6-(methyl(2-(neopentylamino)ethyl)amino)pyridin-2-yl)thio)methyl)phenyl)-N-methylmethanesulfonamide] the same measures were “D (Category D: ≥6.5)” and below 316 nM.
With `N#Cc1c(SC(C(N)=O)c2ccccc2)nc(N2CCC(OCCN)CC2)c(C#N)c1C1CC1` (stereo not shown) [Example 656, 2-((6-(4-(2-aminoethoxy)piperidin-1-yl)-3,5-dicyano-4-cyclopropylpyridin-2-yl)thio)-2-phenylacetamide], the “DNMT1 BioChemical (pIC50 category)” value on DNMT1 (setting [3]) is listed as “D (Category D: ≥6.5)”. Besides, the EC50 in test [1] was 1000 to 31600 nM.
On to `CCc1c(C#N)c(SC(C(N)=O)c2cc(OC)ccn2)nc(N2CCCN(C)CC2)c1C#N` (stereo not shown) [Example 214, 2-((3,5-Dicyano-4-ethyl-6-(4-methyl-1,4-diazepan-1-yl)pyridin-2-yl)thio)-2-(4-methoxypyridin-2-yl)acetamide], for which the IC50 at DNMT1 (setting [2]) was 1000 to 31600 nM. The EC50 in test [1] is above 31600 nM.
On to `CCc1c(C#N)c(SC(C(N)=O)c2ccccc2)nc(N(C)CC(=O)N2C[C@H](CO)[C@@H](O)C2)c1C#N` (stereo partly drawn) [Example 664, 2-((3,5-dicyano-4-ethyl-6-((2-((3R,4R)-3-hydroxy-4-(hydroxymethyl)pyrrolidin-1-yl)-2-oxoethyl)(methyl)amino)pyridin-2-yl)thio)-2-phenylacetamide], for which the “DNMT1 BioChemical (pIC50 category)” value on DNMT1 (setting [3]) is “D (Category D: ≥6.5)”. Moreover, in test [1], the EC50 was 1000 to 31600 nM.
As to `CCc1c(C#N)c(SC(C(N)=O)c2ccccc2)nc(N(C)Cc2n[nH]c(=O)[nH]2)c1C#N` (stereo not shown) [Example 340, 2-((3,5-Dicyano-4-ethyl-6-(methyl((5-oxo-4,5-dihydro-1H-1,2,4-triazol-3-yl)methyl)amino)pyridin-2-yl)thio)-2-phenylacetamide], the “DNMT1 BioChemical (pIC50 category)” value at DNMT1 (setting [3]) is “D (Category D: ≥6.5)”. In test [1], the EC50 was 1000 to 31600 nM.
With `CCc1c(C#N)c(SC(C(N)=O)c2ccccc2)nc(N(C)CC(=O)N2CCCC2)c1C#N` (stereo not shown) [Example 620, 2-((3,5-dicyano-4-ethyl-6-(methyl(2-oxo-2-(pyrrolidin-1-yl)ethyl)amino)pyridin-2-yl)thio)-2-phenylacetamide], the “DNMT1 BioChemical (pIC50 category)” value at DNMT1 (setting [3]) was “D (Category D: ≥6.5)”. The EC50 in test [1] was below 316 nM.
